Reference: patent publication US20080108674A1, “CATIONIC ANTISEPTIC AND DYE FORMULATION” (ENTURIA, INC., priority 2006, published 2008)

Legend:
[1] = Three-month room temperature storage of aqueous CHG / cationic dye solutions (Examples 7, 8); assay type: physicochemical; conditions: 2.0% w/v CHG and 0.05% w/v dye in water
Description: The chemical structure and chemical category of each of these dyes are presented below. Crystal violet, malachite green, and Victoria pure blue BO all belong to the same chemical family, triarylmethane. Bismark brown and acriflavine each belong to a different chemical family, azo and acridine, respectively. [drawing 3] [drawing 4]
Aqueous solutions of 2.0% w/v CHG and 0.05% w/v dye were prepared for each of the dyes indicated above to test the stability of the solutions. Each aqueous solution was prepared using a Class A 100 ml volumetric flask, in which 0.050 grams of dye were dissolved in 30.0 ml of distilled water. Additionally, 10.6 g of 20% w/v aqueous CHG solution was added to the flask. The solution was then brought up to volume with distilled water. The solutions were stored for three months at room temperatures.
In particular, the dye tested was azure C, which is a cationic dye that belongs to the thiazin family. Its positive charge comes from a tertiary sulfur atom instead of a quaternary nitrogen atom. The chemical structure and chemical category of azure C is presented below. [drawing 5]
An aqueous solution of 2.0% w/v CHG and 0.05% w/v azure C dye was prepared to test the stability of the solution. The solution was prepared similar to the preparation of the solutions in Example 7. […]

[2] = Compatibility of an anionic dye alone with an aqueous CHG solution (Example 1); assay type: physicochemical; conditions: 0.13% w/v dye in distilled water, no cationic excipient; after two drops
Description: The compatibility of an anionic dye alone with an aqueous chlorhexidine gluconate (CHG) solution (i.e., without the addition of a cationic excipient) was tested. A 0.13% w/v anionic dye solution was prepared by dissolving 0.13 g FD&C Yellow 6 in 100 ml of distilled water. A 20% w/v aqueous CHG solution was then added drop wise to the dye solution.

| Compound | time solution stable and dye compatible ([1]; room temperature) | visible precipitate ([1]; stored three months at room temperature) | precipitate on drop wise addition of 20% w/v aqueous CHG solution to the dye solution [2] |
| --- | --- | --- | --- |
| CNc1ccc2nc3ccc(N)cc3[s+]c2c1.[Cl-] [azure C] | at least three months | no visible precipitate |  |
| O=S(=O)([O-])c1ccc(N=Nc2c(O)ccc3cc(S(=O)(=O)[O-])ccc23)cc1.[Na+].[Na+] [FD&C Yellow 6, FD&C Yellow No. 6 (Sunset Yellow FCF)] |  |  | precipitate was formed |
